Results: ChEMBL document CHEMBL5528052, “Single Deletion Unmasks Hidden Anti-Gram-Negative Bacterial Activity of an Insect Defensin-Derived Peptide” (J Med Chem, 2024)
The source made the active and inactive calls. The calls are words filed in the database; no cut-off is given here.

Experiments:
Assay type in all cases: functional, organism-based
Pseudomonas aeruginosa [1] = test: Antimicrobial activity against Pseudomonas aeruginosa QT1 at 1 nmol relative to control
Escherichia coli [2] = test: Antimicrobial activity against Escherichia coli J14b at 1 nmol relative to control
Aspergillus nidulans = test: Antifungal activity against Aspergillus nidulans A28 at 1 nmol relative to control
Pseudomonas aeruginosa [3] = test: Antimicrobial activity against Pseudomonas aeruginosa 11092304 at 1 nmol relative to control
Aspergillus fumigatus = test: Antifungal activity against Aspergillus fumigatus YJ-407 at 1 nmol relative to control
Pseudomonas aeruginosa [4] = test: Antimicrobial activity against Pseudomonas aeruginosa 11092618 at 1 nmol relative to control
Staphylococcus aureus [5] = test: Antimicrobial activity against methicillin-resistant Staphylococcus aureus P1386 at 1 nmol relative to control
Escherichia coli [6] = test: Antimicrobial activity against Escherichia coli J45b at 1 nmol relative to control
Staphylococcus = test: Antimicrobial activity against methicillin-resistant coagulase negative Staphylococcus P1369 at 1 nmol relative to control
Pseudomonas aeruginosa [7] = test: Antimicrobial activity against Pseudomonas aeruginosa DH at 1 nmol relative to control
Staphylococcus aureus [8] = test: Antimicrobial activity against penicillin-resistant Staphylococcus aureus P1383 at 1 nmol relative to control
Beauveria bassiana = test: Antifungal activity against Beauveria bassiana 252 at 1 nmol relative to control
Pseudomonas aeruginosa [9] = test: Antimicrobial activity against Pseudomonas aeruginosa 11082616 at 1 nmol relative to control
Escherichia coli [10] = test: Antimicrobial activity against Escherichia coli G2b at 1 nmol relative to control
Ralstonia solanacearum = test: Antimicrobial activity against Ralstonia solanacearum at 1 nmol relative to control
Pseudomonas aeruginosa [11] = test: Antimicrobial activity against Pseudomonas aeruginosa FRD1 at 1 nmol relative to control
Streptococcus sanguinis = test: Antimicrobial activity against Streptococcus sanguinis ATCC 1.2497 at 1 nmol relative to control
Priestia megaterium = test: Antimicrobial activity against Bacillus megaterium CGMCC 1.0459 at 1 nmol
Geotrichum candidum = test: Antifungal activity against Geotrichum candidum CCTCC AY 93038 at 1 nmol relative to control
Pseudomonas aeruginosa [12] = test: Antimicrobial activity against Pseudomonas aeruginosa 11082603 at 1 nmol relative to control
Aspergillus flavus = test: Antifungal activity against Aspergillus flavus at 1 nmol relative to control
Pseudomonas aeruginosa [13] = test: Antimicrobial activity against Pseudomonas aeruginosa O1 at 1 nmol relative to control
Streptococcus salivarius = test: Antimicrobial activity against Streptococcus salivarius ATCC 1.2498 at 1 nmol relative to control
Salmonella enterica = test: Antimicrobial activity against Salmonella enterica ATCC 14028 at 1 nmol relative to control
[14] = system: Staphylococcus epidermidis; test: Antimicrobial activity against penicillin-resistant Staphylococcus epidermidis P1389 at 1 nmol relative to control
Staphylococcus aureus [15] = test: Antimicrobial activity against methicillin-resistant Staphylococcus aureus P1374 at 1 nmol relative to control
Alcaligenes faecalis = test: Antimicrobial activity against Alcaligenes faecalis CGMCC 1.1837 at 1 nmol relative to control
Staphylococcus warneri = test: Antimicrobial activity against Staphylococcus warneri ATCC 1.2824 at 1 nmol relative to control
[16] = system: Lysinibacillus fusiformis; test: Antimicrobial activity against Lysinibacillus fusiformis at 1 nmol relative to control
Curtobacterium luteum = test: Antimicrobial activity against Curtobacterium luteum at 1 nmol relative to control
[17] = system: Stenotrophomonas maltophilia; test: Antimicrobial activity against Stenotrophomonas maltophilia CGMCC 1.1788 at 1 nmol relative to control
Bacillus subtilis = test: Antimicrobial activity against Bacillus subtilis CGMCC 1.2428 at 1 nmol relative to control
Escherichia coli [18] = test: Antimicrobial activity against Escherichia coli J23a at 1 nmol relative to control
Streptococcus mutans = test: Antimicrobial activity against Streptococcus mutans ATCC 1.2499 at 1 nmol relative to control
Pseudomonas aeruginosa [19] = test: Antimicrobial activity against Pseudomonas aeruginosa at 1 nmol relative to control
Metarhizium robertsii = test: Antifungal activity against Metarhizium robertsii at 1 nmol relative to control
Staphylococcus aureus [20] = test: Antimicrobial activity against Staphylococcus aureus J685 at 1 nmol relative to control
Pseudomonas aeruginosa [21] = test: Antimicrobial activity against Pseudomonas aeruginosa 374 at 1 nmol relative to control
Micrococcus luteus = test: Antimicrobial activity against Micrococcus luteus CGMCC 1.0290 at 1 nmol relative to control
Aspergillus niger = test: Antifungal activity against Aspergillus niger at 1 nmol relative to control
Komagataella pastoris = test: Antifungal activity against Pichia pastoris X33 at 1 nmol relative to control
Escherichia coli [22] = test: Antimicrobial activity against Escherichia coli J16c at 1 nmol relative to control
Escherichia coli [23] = test: Antimicrobial activity against Escherichia coli DH5alpha at 1 nmol relative to control

Substance: H-ATSYSNNKISVSRR-NH2
- Activity (Pseudomonas aeruginosa [1]): inactive
- Activity (Escherichia coli [2]): inactive
- Activity (Aspergillus nidulans): inactive
- Activity (Pseudomonas aeruginosa [3]): inactive
- Activity (Aspergillus fumigatus): inactive
- Activity (Pseudomonas aeruginosa [4]): inactive
- Activity (Staphylococcus aureus [5]): inactive
- Activity (Escherichia coli [6]): inactive
- Activity (Staphylococcus): inactive
- Activity (Pseudomonas aeruginosa [7]): inactive
- Activity (Staphylococcus aureus [8]): inactive
- Activity (Beauveria bassiana): inactive
- Activity (Pseudomonas aeruginosa [9]): inactive
- Activity (Escherichia coli [10]): inactive
- Activity (Ralstonia solanacearum): inactive
- Activity (Pseudomonas aeruginosa [11]): inactive
- Activity (Streptococcus sanguinis): inactive
- Activity (Priestia megaterium): Active
- Activity (Geotrichum candidum): inactive
- Activity (Pseudomonas aeruginosa [12]): inactive
- Activity (Aspergillus flavus): inactive
- Activity (Pseudomonas aeruginosa [13]): inactive
- Activity (Streptococcus salivarius): inactive
- Activity (Salmonella enterica): inactive
- Activity [14]: inactive
- Activity (Staphylococcus aureus [15]): inactive
- Activity (Alcaligenes faecalis): inactive
- Activity (Staphylococcus warneri): inactive
- Activity [16]: inactive
- Activity (Curtobacterium luteum): inactive
- Activity [17]: inactive
- Activity (Bacillus subtilis): inactive
- Activity (Escherichia coli [18]): inactive
- Activity (Streptococcus mutans): inactive
- Activity (Pseudomonas aeruginosa [19]): inactive
- Activity (Metarhizium robertsii): inactive
- Activity (Staphylococcus aureus [20]): inactive
- Activity (Pseudomonas aeruginosa [21]): inactive
- Activity (Micrococcus luteus): inactive
- Activity (Aspergillus niger): inactive
- Activity (Komagataella pastoris): inactive
- Activity (Escherichia coli [22]): inactive
- Activity (Escherichia coli [23]): inactive
